Measurements reported in patent publication US6013625A, “Method and composition for treating thrombosis” (La Jolla Cancer Research Foundation, priority 1994, dated 2000).
Values joined by “and” are separate entries in the source; they are usually repeats but may differ in a detail not shown here. Equal values may be shown once.

Columns and labels:
[1] = molecular target: T1, fibronectin receptor (Fn-R) (Homo sapiens, UniProt P05556+P08648); assay: Competitive ELISA for fibronectin receptor binding; conditions: purified receptor from human placenta, read-out: FnR Binding (IC50)
T1 construct: purified from (100 mM) octyl glucoside-extracted human placenta; from tissue; host or cells: human placenta
T1 sequence (P08648 42-894 limits assumed): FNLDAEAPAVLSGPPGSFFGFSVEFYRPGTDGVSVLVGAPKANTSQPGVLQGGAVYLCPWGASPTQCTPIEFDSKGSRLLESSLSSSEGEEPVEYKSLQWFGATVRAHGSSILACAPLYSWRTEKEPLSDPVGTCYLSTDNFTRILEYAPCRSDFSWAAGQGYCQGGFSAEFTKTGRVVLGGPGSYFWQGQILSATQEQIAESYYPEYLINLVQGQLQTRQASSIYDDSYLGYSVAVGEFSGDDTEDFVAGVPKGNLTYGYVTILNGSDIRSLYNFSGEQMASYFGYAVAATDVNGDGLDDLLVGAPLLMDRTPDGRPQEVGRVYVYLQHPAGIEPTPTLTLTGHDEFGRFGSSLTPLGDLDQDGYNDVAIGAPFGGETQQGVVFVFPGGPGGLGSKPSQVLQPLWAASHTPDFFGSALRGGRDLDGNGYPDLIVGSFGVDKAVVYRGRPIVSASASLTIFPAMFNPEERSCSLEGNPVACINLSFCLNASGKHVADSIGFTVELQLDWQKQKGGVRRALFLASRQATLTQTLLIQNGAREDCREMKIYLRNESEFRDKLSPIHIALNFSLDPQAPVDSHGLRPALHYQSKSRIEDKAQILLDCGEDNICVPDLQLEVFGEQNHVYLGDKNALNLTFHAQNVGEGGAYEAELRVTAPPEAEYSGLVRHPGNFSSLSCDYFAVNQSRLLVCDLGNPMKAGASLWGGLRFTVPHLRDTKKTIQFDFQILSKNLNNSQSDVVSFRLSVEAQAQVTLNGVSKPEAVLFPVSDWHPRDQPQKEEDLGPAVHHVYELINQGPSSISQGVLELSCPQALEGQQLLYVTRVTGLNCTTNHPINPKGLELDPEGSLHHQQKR
T1 sequence (P08648 895-1049 partner limits assumed): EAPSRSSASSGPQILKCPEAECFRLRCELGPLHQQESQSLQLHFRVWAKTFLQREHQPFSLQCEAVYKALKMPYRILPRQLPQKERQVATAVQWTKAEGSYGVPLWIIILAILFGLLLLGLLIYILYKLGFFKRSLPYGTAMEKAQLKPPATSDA
T1 sequence (P05556 21-798): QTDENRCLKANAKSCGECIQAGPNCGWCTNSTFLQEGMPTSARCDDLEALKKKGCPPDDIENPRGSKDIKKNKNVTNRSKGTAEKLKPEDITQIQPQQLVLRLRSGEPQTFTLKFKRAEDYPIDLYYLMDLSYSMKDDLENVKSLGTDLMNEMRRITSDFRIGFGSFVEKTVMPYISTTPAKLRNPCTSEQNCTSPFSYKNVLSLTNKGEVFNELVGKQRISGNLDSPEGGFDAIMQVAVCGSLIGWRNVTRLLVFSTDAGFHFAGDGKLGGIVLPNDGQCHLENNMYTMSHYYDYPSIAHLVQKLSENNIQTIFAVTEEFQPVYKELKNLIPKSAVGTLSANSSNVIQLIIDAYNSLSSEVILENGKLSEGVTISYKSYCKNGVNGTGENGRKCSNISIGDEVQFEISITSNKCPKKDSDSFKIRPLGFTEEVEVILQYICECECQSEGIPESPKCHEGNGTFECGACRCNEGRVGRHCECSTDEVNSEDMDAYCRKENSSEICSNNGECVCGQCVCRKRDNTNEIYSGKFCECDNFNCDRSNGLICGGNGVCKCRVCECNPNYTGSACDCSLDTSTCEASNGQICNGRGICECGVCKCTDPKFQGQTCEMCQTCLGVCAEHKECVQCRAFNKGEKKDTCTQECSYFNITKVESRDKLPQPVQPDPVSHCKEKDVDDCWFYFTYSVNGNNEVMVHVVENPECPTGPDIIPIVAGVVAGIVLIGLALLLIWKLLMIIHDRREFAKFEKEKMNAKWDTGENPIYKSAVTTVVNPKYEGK
Method: Peptide binding to purified Fn-R was determined by using a competitive enzyme-linked immunosorbent assay (ELISA) in which fibronectin is immobilized and the binding of solubilized Fn-R is detected with labeled anti-FnR antibodies in the presence of various concentrations of peptide analogue.
Microtiter plates were coated with 110 μl of human fibronectin (at 2 μg/ml) in TBS. The plates were washed three times with TBS that contained 0.05% Tween 20. If necessary, peptides were added after this washing in 10 microliter aliquots. The fibronectin receptor was then added in 2-fold serial dilutions with TBS containing 20 mM octyl glucoside and 2 mM MnCl2. The plates were incubated for three hours at room temperature, washed with 200 μl of the above TBS-Tween buffer. 100 μl of affinity-purified rabbit anti-human fibronectin receptor antibody was added to the wells and the plates were incubated for an additional two hours, washed twice with TBS-Tween and then distilled water. Affinity-purified goat anti-rabbit IgG conjugated to horseradish peroxidase (100 μl) was then added to each well. Bonding reactions were incubated for 16 hours at room temperature. The following day, the plates were washed twice with TBS-Tween and then distilled water. […]

[2] = molecular target: T2, vitronectin receptor (Vn-R) (Homo sapiens, UniProt P05106+P06756); assay: Liposome attachment assay for vitronectin receptor; conditions: purified receptor from human placenta, read-out: VnR Binding (IC50)
T2 construct: from tissue; host or cells: human placenta
T2 sequence (P06756 31-889 limits assumed): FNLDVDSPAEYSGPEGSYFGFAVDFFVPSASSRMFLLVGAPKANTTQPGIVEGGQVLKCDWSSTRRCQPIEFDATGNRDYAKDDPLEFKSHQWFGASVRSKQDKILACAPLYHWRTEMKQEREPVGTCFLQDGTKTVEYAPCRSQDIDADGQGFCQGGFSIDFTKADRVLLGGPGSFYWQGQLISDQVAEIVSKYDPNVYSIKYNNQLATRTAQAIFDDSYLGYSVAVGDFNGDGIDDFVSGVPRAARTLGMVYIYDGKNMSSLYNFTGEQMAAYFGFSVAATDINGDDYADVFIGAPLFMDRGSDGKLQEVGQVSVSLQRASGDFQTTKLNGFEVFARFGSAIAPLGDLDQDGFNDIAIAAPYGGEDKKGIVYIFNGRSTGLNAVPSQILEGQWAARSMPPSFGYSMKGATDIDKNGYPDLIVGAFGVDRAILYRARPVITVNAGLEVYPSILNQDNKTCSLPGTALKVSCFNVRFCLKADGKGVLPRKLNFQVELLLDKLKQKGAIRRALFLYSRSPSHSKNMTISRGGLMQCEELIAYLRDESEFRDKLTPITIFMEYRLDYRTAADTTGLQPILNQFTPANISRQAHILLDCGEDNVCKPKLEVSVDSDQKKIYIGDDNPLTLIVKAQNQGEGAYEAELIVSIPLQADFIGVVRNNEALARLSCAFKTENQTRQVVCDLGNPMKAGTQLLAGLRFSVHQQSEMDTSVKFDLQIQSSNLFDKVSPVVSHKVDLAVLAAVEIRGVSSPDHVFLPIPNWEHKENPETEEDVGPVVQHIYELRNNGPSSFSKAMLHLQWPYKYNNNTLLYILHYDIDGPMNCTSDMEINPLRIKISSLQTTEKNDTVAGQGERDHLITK
T2 sequence (P06756 891-1048 partner limits assumed): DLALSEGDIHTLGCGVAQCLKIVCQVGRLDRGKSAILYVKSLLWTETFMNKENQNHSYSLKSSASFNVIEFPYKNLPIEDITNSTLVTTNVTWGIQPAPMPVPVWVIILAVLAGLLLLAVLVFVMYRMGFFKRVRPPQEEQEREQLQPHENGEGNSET
T2 sequence (P05106 27-788): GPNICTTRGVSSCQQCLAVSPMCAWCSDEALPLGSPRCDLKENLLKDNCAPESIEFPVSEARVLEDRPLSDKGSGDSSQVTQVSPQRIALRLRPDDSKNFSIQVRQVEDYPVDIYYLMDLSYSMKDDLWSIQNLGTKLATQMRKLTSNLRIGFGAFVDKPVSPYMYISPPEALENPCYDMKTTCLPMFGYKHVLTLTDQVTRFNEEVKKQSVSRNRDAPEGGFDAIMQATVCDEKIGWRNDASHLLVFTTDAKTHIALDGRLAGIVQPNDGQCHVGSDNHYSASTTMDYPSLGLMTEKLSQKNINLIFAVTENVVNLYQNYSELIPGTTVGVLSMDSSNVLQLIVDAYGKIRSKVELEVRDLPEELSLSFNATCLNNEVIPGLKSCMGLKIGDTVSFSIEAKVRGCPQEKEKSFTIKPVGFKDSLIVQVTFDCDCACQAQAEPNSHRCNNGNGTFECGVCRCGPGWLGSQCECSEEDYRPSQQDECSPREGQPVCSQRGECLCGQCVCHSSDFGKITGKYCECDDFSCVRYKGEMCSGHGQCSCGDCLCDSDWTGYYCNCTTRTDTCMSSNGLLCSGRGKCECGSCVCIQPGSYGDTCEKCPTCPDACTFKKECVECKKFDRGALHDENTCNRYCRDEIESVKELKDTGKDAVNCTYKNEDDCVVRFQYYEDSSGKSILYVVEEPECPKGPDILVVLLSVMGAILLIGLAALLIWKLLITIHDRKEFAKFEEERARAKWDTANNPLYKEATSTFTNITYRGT
Method: Receptors were purified according to the procedures of Pytela et al. (Methods Enzymol. 144:475 (1987)), incorporated herein by reference. […] After extraction, the suspension was filtered over a Sepharose 6B column and then applied to a GRGDSPK column. Except where stated, all procedures were carried out at 4° C. The peptide column was washed with three volumes of Tris-buffered saline (TBS) containing 1 mM Ca^2+ and 25 mM OG and then with TBS containing 1 mM Ca^2+ and 25 mM octyl thioglucoside (OTG) at room temperature. […] Finally, Ca^2+ and Mg^+2 were added to eluted fractions to achieve final concentrations of 1 mM for both ions.
This assay was performed with minor modifications, according to the method of Pytela et al., Methods Enzymol. 144:475 (1987), incorporated herein by reference. […] An aliquot of the dialyzed sample was counted to assess radioactive content; the receptor-liposome mixture was then diluted to obtain a set radioactivity per unit volume. […]
(§1) In parallel studies with the platelet aggregation experiments (described in Example V), the apparent affinities of peptides for GP IIb/IIIa, fibronectin and vitronectin receptors were determined. […]
(§2) IC50 s for FnR were determined by ELISA (Example III). Those for VnR and GP IIb/IIIa were determined by liposome attachment assay (Example IV). […]

platelets [3] = assay: Ex vivo platelet aggregation after peptide injection in the canine coronary thrombosis model; set-up: species or system dog; conditions: for reduction of ex vivo aggregation relative to control levels: 3 mg/kg
Method: For all ex vivo studies (see FIG. 3), control aggregation values were standardized to the percentages of light transmission observed in PRP and PPP samples (0% and 100%, respectively).
Animals were randomly assigned to two treatment groups: vehicle control (i.e., normal saline) or RGD peptides at various concentrations. Peptides were administered intra-atrially in both bolus and continuous injections. […] A continuous infusion of the same peptide was then started immediately after completion of this initial injection. Animals that received a 5 mg/kg bolus also received a 5 mg/kg/hr infusion, whereas animals that received a 10 mg/kg bolus also received a 10 mg/kg/hr infusion. The anti-thrombotic effects of the peptides were monitored until 30 minutes after the occurrence of a persistent, occlusive thrombus or five hours after the initiation of electrical stimulation (whichever resulted first). If an occlusive thrombus had not developed within four hours after the initiation of current, the peptide infusion was stopped.
Platelet counts and ex vivo aggregation studies were performed one hour before and 1, 3, and 5 hours after application of anodal direct current.
Platelet aggregation was also determined ex vivo at one, three, and five hours after current application. For these studies, arachidonic acid, or collagen was again used to stimulate the platelets.

coronary thrombosis = assay: Electrically induced canine coronary thrombosis, time to full occlusion; assay type: in vivo, dog
Method: Male mongrel dogs weighing 14 to 20 kg were selected based on proper aggregation of their platelets in response to arachidonic acid, collagen, and adenosine disphosphate (ADP) and based on similar weights and hemodynamic properties.
Before surgery, the animals were anesthetized with sodium pentobarbital (30 mg/kg, i.v.) and then intubated and ventilated on room air with positive pressure using a respirator (Harvard Apparatus, S. Natick, Mass.) at a volume of 30 ml/kg and a frequency of 12 breaths/min. Surgery, performed under aseptic conditions, was begun with the placement of cannulae into the left carotid artery and jugular vein for monitoring arterial blood pressure (Statham P23 pressure transducer, Gould, Inc., Cardiovascular Products, Oxnard, Calif.) and administering intravenous fluids.
The heart was exposed via a left thoracotomy through the 5th intercostal space. A 2-cm segment of the left circumflex coronary artery (LCCA) was isolated from surrounding tissue by blunt dissection. […] The intra-coronary electrode was constructed by attaching a 25-gauge hypodermic needle tip to a 30-gauge Teflon-insulated silver-coated copper wire. The mechanical occluder was constructed of stainless steel in a C shape with a Teflon screw (2 mm diameter) on top. It was adjusted to control vessel circumference and decrease the reactive hyperemic flow due to a 10-sec (full) occlusion by 50-70% without affecting basal coronary blood flow (FIG. 1). A monopolar epicardial electrode was sutured to the surface of the ventricle in the region of LCCA distribution to monitor ischemic changes in the electrocardiogram (ECG). The left atrium was cannulated with polythylene tubing for administration of the peptide. Continuous recordings of blood pressure, limb lead II ECG, epicardial electrogram, and mean and phasic LCCA blood flow were obtained on a Model 7 polygraph (Grass Instrument Co., Quincy, Mass.).
One hour after the completion of surgery, a 100 micro-amp continuous anodal direct current delivered from a 9 volt nickel-cadmium battery was applied to the intimal surface of the LCCA. The anode of the battery was in series with a 250,000 ohm potentiometer and the intraluminal coronary artery electrode. The electric circuit was completed by placing the cathode in a subcutaneous site. Electrical stimulation was applied for three hours. At the conclusion of each experiment, the heart was fibrillated electrically and quickly removed, and the LCCA was dissected free as far as possible to verify the position of the implanted anodal electrode.
Animals were randomly assigned to two treatment groups: vehicle control (i.e., normal saline) or RGD peptides at various concentrations. Peptides were administered intra-atrially in both bolus and continuous injections. Each bolus injection consisted of 5 or 10 mg/kg and was administered 15 minutes before application of the current. A continuous infusion of the same peptide was then started immediately after completion of this initial injection. Animals that received a 5 mg/kg bolus also received a 5 mg/kg/hr infusion, whereas animals that received a 10 mg/kg bolus also received a 10 mg/kg/hr infusion. The anti-thrombotic effects of the peptides were monitored until 30 minutes after the occurrence of a persistent, occlusive thrombus or five hours after the initiation of electrical stimulation (whichever resulted first). If an occlusive thrombus had not developed within four hours after the initiation of current, the peptide infusion was stopped.
Coronary thrombosis was quantified as the time to full occlusion. The effects of the various peptide treatments on coronary thrombosis is illustrated in FIG. 4.

platelets [4] = assay: Ex vivo ADP-stimulated platelet aggregation in baboon PRP; conditions: animal 2; ADP 10 μm; 0, 1 and 2 hours
Method: At one- and two-hour time points, template bleeding times were measured, and blood samples were drawn to assess the hematology aggregation studies. Platelet aggregation studies were performed as described in Example V using ADP as the stimulus.
In addition, platelet aggregation studies were conducted on PRP derived from the second animal. Whole blood was drawn at three time points (0, 1 and 2 hours) of both control and experimental shunts.

[5] = tested on: platelets stimulated with ADP; assay: ADP-stimulated platelet aggregation (aggregometer, platelet-rich plasma); conditions: read-out: ADP-Stimulated Aggregation (IC50), ADP 10 μm, 37° C.
Method: Briefly, the change in light transmission was measured through a stirred suspension of platelets in an aggregometer (Model 400 VS, Chrono-Log, Havertown, Pa., USA). […] In studies using thrombin, the PRP was gel-filtered on Sepharose 2B in divalent ion-free Tyrode's solution containing 2% BSA. For all studies, the reference standard was platelet-poor plasma, which was obtained by centrifuging PRP at 1000×g for 5 min.
All aggregation studies were performed at 37° C. with a constantly stirred suspension of 3×10^8 platelets/ml. (Platelet count was determined with the aid of a hemacytometer.) Peptides and stimulants were added to these suspensions in 1% dilutions. The PRP and gel-filtered platelets were used within three hours from the time of blood collection.
Peptide anti-aggregation potencies were determined from dose-responsive curves for the inhibition of the maximum aggregation responses stimulated by physiologic doses of ADP (10 μm) and thrombin (2 U/ml).

GP IIb/IIIa = GP IIb/IIIa (Homo sapiens, UniProt P05106+P08514); assay: Liposome attachment assay for GP IIb/IIIa; conditions: read-out: IIb/IIIa Binding (IC50)
GP IIb/IIIa, sequence (P08514 32-887 limits assumed): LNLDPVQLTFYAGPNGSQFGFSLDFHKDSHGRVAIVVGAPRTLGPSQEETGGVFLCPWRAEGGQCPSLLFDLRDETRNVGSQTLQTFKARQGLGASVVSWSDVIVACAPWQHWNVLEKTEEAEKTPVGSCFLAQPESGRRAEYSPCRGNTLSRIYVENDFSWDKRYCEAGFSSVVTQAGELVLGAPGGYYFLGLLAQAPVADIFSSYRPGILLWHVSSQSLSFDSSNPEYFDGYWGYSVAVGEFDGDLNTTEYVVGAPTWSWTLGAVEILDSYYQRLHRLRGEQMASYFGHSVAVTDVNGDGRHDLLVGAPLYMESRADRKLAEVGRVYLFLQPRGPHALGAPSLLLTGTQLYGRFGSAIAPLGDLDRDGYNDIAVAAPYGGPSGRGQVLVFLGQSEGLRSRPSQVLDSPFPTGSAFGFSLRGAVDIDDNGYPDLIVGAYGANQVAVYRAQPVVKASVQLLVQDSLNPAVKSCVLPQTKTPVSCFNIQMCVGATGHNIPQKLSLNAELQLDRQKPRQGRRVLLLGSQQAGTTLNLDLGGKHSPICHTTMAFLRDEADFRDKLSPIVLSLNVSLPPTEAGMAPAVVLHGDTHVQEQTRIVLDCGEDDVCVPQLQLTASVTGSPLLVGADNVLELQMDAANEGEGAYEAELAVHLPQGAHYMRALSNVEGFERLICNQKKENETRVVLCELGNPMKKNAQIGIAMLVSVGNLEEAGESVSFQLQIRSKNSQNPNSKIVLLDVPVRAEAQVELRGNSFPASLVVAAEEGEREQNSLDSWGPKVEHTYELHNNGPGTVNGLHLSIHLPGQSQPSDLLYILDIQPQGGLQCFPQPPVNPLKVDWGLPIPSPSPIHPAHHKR
GP IIb/IIIa, sequence (P08514 891-1039 partner limits assumed): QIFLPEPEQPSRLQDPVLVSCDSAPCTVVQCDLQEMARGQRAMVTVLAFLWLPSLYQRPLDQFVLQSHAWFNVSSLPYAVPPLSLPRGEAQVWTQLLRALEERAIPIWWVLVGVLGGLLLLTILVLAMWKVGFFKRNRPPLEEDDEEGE
GP IIb/IIIa, sequence (P05106 27-788): as the sequence (P05106 27-788) above
Method: This assay was performed with minor modifications, according to the method of Pytela et al., Methods Enzymol. 144:475 (1987), incorporated herein by reference. Briefly, 1:4 mixture of labelled and unlabelled phosphatidylcholine (PC) liposomes was dissolved under nitrogen and diluted with an equal volume of purified receptor (purified as described in Example II) to achieve a fixed predetermined receptor-liposome concentration ratio. This mixture was then dialyzed overnight at 4° C. in phosphate buffered saline (PBS) containing 1 mM Ca^2+. An aliquot of the dialyzed sample was counted to assess radioactive content; the receptor-liposome mixture was then diluted to obtain a set radioactivity per unit volume.
Microtiter plates were coated with 10 μg of vitronectin. Non-specific sites were blocked for 2 hours at 37° C. in PBS containing 5 mg/ml BSA and 1 mM each of CaCl2 and MgCl2. The plates were then rinsed twice with PBS containing 1 mM Ca^+2 and Mg^+2, and 100 μl of the liposome-receptor mixture was added to each well. […]
as §1, §2

[6] = 10 mg/kg bolus + 10 mg/kg/hr, intra-atrial
[7] = 10 mg/kg, all three time points

FRGDSPDG
IC50 [1]: 0.12 µM

GHRGDLRDASG
IC50 [2]: 36.8 µM

RPenGRGDWPCR
reduction of ex vivo aggregation relative to control levels (platelets [3]; one hour): 20-58% | reduction of ex vivo aggregation relative to control levels (platelets [3]; three and five hours, listed as 4R): 75-100% and 72-100% | ex vivo platelet responsiveness to all modes of stimulation (platelets [3]; 10 mg/kg, all time points): unresponsive | time to full occlusion (coronary thrombosis) (coronary thrombosis; 3 mg/kg): ineffective | time to full occlusion (coronary thrombosis) (coronary thrombosis; [6]): prevented occlusion

GPenGHRGDLRCA
inhibition of ADP-stimulated ex vivo aggregation (platelets [3]; 10 mg/kg, 1, 3 and 5 h): substantially inhibited | inhibition of AA-stimulated ex vivo aggregation relative to control levels (platelets [3]; [7]): 43-70% | inhibition of collagen-stimulated ex vivo aggregation relative to control levels (platelets [3]; [7]): 12-50% | ex vivo platelet responsiveness to ADP (platelets [4]): completely unresponsive | time to full occlusion (coronary thrombosis) (coronary thrombosis; [6]): did not significantly influence

(t-but-am-Pam-Pmp)GHRGDLRPenA
IC50 [5]: 89 µM

RPenGHRGDWRCR
blockade of all ex vivo aggregation responses (platelets [3]; 5 mg/kg): completely or near-maximally blocked | inhibition of ex vivo platelet activation by collagen (platelets [3]; 5 mg/kg): near-maximal inhibition | platelet responsiveness ex vivo to ADP and AA (platelets [3]; 5 mg/kg, all three time points): completely unresponsive | thrombus formation in animals whose circulating platelet levels were one-third of normal (coronary thrombosis; 5 mg/kg): able to prevent thrombus formation | time to full occlusion (coronary thrombosis) (coronary thrombosis; 5 mg/kg bolus + 5 mg/kg/hr, intra-atrial): significantly prolonged | time to full occlusion (coronary thrombosis) (coronary thrombosis; [6]): completely prevented occlusion

GPGRGDSPCA
IC50 (GP IIb/IIIa): 20 µM

GRGDSPDG
IC50 [1]: 0.005 µM
